Target: T1, cIAP-1 BIR-3 (Homo sapiens, UniProt Q13490)
T1 construct: "cIAP-1 BIR-3"
Assay: Fluorescence polarization binding to cIAP-1 BIR-3 (competition with AbuRPF-K(5-Fam)-NH2)
Settings: cells marked (cIAP-1): cIAP-1 BIR-3; reported as range class
Method: The binding affinities of the compounds are reported as a Kd value. Briefly, various concentrations of test peptides were mixed with 5 nM of the fluorescently labeled peptide (i.e., a mutated N-terminal Smac peptide—AbuRPF-K(5-Fam)-NH2) and 40 nM of the BIR3 for 15 min at RT in […] of 0.1M Potassium Phosphate buffer, pH 7.5 containing […] bovine g-globulin. Following incubation, the polarization values (mP) were measured on a Victor2V (available from PerkinElmer Life Sciences) using a 485 nm excitation filter and a 520 nm emission filter. The reported Kd values are supplied as ranges (A=<0.1 μM, B=0.1 μM to C=>1 μM to 10 μM, D=>10 μM) and, unless otherwise indicated, are the Kd for XIAP BIR-3.

T1 sequence (Q13490 266-343 limits assumed): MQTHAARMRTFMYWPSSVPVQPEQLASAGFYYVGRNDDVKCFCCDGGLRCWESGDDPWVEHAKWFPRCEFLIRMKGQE

Row | Kd [nM] | Molecule
1 | < 100 | CC[C@H](NC)C(=O)N[C@H](C(=O)N1CC[C@@H](O)[C@H]1Cc1c[nH]c2ccccc12)C(C)C [UU′]
2 | > 100 | CCN[C@@H](C)C(=O)N[C@H](C(=O)N1CC[C@H](OC)[C@H]1Cc1c(Cl)[nH]c2cc(F)ccc12)C(C)C [U′]
3 | < 100 | CN[C@@H](C)C(=O)N[C@H](C(=O)N1CC[C@@H](O)[C@H]1Cc1c[nH]c2ccccc12)C1CC1 [VV′]
4 | > 100 | CC[C@H](NC)C(=O)N[C@H](C(=O)N1CCC[C@H]1Cc1cn(C)c2ncccc12)C(C)(C)C [V]
5 | > 100 | CC[C@H](NC)C(=O)N[C@H](C(=O)N1CC[C@H](OC)[C@H]1Cc1c(Cl)[nH]c2cc(F)ccc12)C(C)C [V′]
6 | > 100 | CN[C@@H](C)C(=O)N[C@H](C(=O)N1C[C@@H](O)C[C@H]1C[C@H]1CN(C(C)=O)c2ccccc21)[C@@H](C)OC [WWW]
7 | < 100 | CCN[C@@H](C)C(=O)N[C@H](C(=O)N1CCC[C@H]1Cc1cn(C)c2ncccc12)C(C)(C)C [W]
8 | < 100 | CN[C@@H](C)C(=O)N[C@H](C(=O)N1CC[C@H](O)[C@H]1Cc1c(Cl)[nH]c2cc(F)ccc12)C1CCCCC1 [W′]
9 | < 100 | CN[C@@H](C)C(=O)N[C@H](C(=O)N1CC[C@@H](O)[C@H]1Cc1c[nH]c2ccccc12)C(C)C [XX′]
10 | < 100 | CN[C@@H](C)C(=O)N[C@H](C(=O)N1CCC[C@H]1Cc1cn(C)c2ncccc12)C(C)(C)C [X]
11 | < 100 | CN[C@@H](C)C(=O)N[C@H](C(=O)N1CC[C@H](O)[C@H]1Cc1c(Cl)[nH]c2cc(F)ccc12)C(C)(C)C [Y′]
12 | < 100 | CN[C@@H](C)C(=O)N[C@H](C(=O)N1CC[C@H](O)[C@H]1Cc1c[nH]c2ncccc12)C(C)(C)C [Z, N-{1-[3-Hydroxy-2-(1H-pyrrolo[2,3-b]pyridin-3-ylmethyl)-pyrrolidine-1-carbonyl]-2,2-dimethyl-propyl}-2-methylamino-propionamide]
13 | < 100 | CCc1ccc2c(c1)[C@H](C[C@@H]1C[C@H](O)CN1C(=O)[C@@H](NC(=O)[C@H](C)NC)[C@@H](C)OC)CN2C(C)=O [ZZZ]
14 | < 100 | CCN[C@@H](C)C(=O)N[C@H](C(=O)N1CC[C@@H](O)[C@H]1Cc1c(-c2ccc(F)cc2)[nH]c2ccccc12)C(C)C [ZZ′]
15 | < 100 | CC[C@H](NC)C(=O)N[C@H](C(=O)N1CC[C@H](O)[C@H]1Cc1c(Cl)[nH]c2cc(F)ccc12)C(C)C [Z′]
16 | > 100 | AAAA
17 | > 100 | EEEE
